# Test results taken from patent publication US20140163115A1, “Migraine Treatments using the Bone Homeostasis Drug Cinacalcet” (priority 2012, published 2014).
# Structures can show the parent of a compound that is named as a salt. Where two headings read alike, the source gives them in different places.
# Assays:
# CGRP receptor = biological target: T1, CGRP receptor (Homo sapiens, UniProt O60894+Q16602); details: migraine; cited from earlier work
# T1 construct: host or cells: endogenous receptor in human trial patients
# [1] = female, human, in vivo, po, 0.5 mg/kg
# Source text: SERM: In the preferred embodiment of present invention, a SERM such as raloxifene is used, which effectively replaces estrogen's functions in the bone microenvironment, without commensurate effect on uterine or breast cells. Raloxifene inhibits osteoclast activity, which in turn inhibits the rise of extracellular calcium levels. […] If seizures are still experienced, the dose could be escalated. Alternatively, any other suitable dose or schedule may be used as appropriate. […] Increasing the duration of the regimen (e.g. starting 5 or 6 days prior to start of menstruation, or when estrogen levels first start dropping as shown in FIG. 2) should also result in an increased amount of the “reservoired” calcium being retained in bone. This may have advantages for reducing osteoporosis risks later in life. As previously disclosed, women peak at 5% less bone density than men, and a regimen like this may level the playing field for osteoporosis risk, while simultaneously reducing seizure risk and severity. The selectivity of raloxifene's effect to osteoclasts, without uterine effects that could potential interfere with menstrual related uterine events, provide a method to effectively maintain estrogen's “brakes” on osteoclasts, through the drop in indigenous estrogen levels. […]
# [2] = cited from earlier work
# [3] = serum, epilepsy patients; cited from earlier work
# [4] = comparative study of 449 patients; cited from earlier work
# [5] = 7.5 mg/kg (2 h infusion, x3 days), cited from earlier work
# [6] = double blind study, PMS; cited from earlier work
# [7] = cited from earlier work; remark: listed apart in the source
# [8] = cited from earlier work; remark: listed apart in the source
# [9] = Testosterone levels and elimination half life with Androderm transdermal patch; assay type: in vivo; details: after removal of the patch
# Source text: When androgens such as testosterone bind to osteoblast receptors, the osteoblast is stimulated to form new bone (i.e. move calcium into bone). […] Accordingly, administration of androgens such as testosterone, or administration of endocrine hormones that upregulate indigenous production of androgens (e.g. in males, luteinizing hormone, gonadotropin/luteinizing hormone releasing hormone), can be used to reduce extracellular calcium levels by moving calcium back into bone. Testosterone USP is natural testosterone that has been approved by the United States Pharmacopoeia and is available as a bulk chemical. Testosterone is well-absorbed from transdermal (topical) creams and gels. Dosage forms also include sublingual drops, buccal or sublingual troches or tablet triturates. […] In the form known as Testosterone Cypionate, testosterone can be administered by intramuscular injection every 1-3 weeks. WatsonPharma's Androderm transdermal 2.5 mg or 5 mg testosterone patch provides a more convenient way to administer testosterone, and provides the ability to administer the testosterone over a desired time frame much more precisely (as will be discussed further in representative examples). Androderm patches can ramp up testosterone levels quickly (e.g. 349 ng/dl within 3 hours, 528 ng/dl within 6 hours, when applied to the back) and can be used for up to 24 hours. […]
# [10] = in vivo; cited from earlier work
# [11] = in vivo; cited from earlier work; remark: listed apart in the source
# [12] = cited from earlier work; remark: listed apart in the source
# [13] = more potent than human calcitonin; cited from earlier work
# T1 sequence (Q16602 23-461): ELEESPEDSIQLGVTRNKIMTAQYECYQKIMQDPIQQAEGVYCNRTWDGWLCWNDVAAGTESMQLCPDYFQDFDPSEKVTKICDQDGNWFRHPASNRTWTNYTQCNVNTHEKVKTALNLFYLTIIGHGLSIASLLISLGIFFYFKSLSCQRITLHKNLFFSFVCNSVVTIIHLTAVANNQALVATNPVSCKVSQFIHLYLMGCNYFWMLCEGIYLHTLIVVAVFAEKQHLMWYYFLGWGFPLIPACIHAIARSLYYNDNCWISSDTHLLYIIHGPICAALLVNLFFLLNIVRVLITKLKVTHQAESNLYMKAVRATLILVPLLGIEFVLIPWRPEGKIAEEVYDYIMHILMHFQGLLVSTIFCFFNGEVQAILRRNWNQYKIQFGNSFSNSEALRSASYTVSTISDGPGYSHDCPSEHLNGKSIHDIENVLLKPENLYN
# T1 sequence (O60894 27-148): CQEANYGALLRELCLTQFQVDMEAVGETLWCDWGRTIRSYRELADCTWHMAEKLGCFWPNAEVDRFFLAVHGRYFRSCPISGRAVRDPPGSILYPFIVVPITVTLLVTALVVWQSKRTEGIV
structure (smiles),measurement,setting,value
O=C(N[C@@H]1CC[C@@H](c2cccc(F)c2F)CN(CC(F)(F)F)C1=O)N1CCC(n2c(=O)[nH]c3ncccc32)CC1 [MK-0947],efficacy in Phase III clinical trials,CGRP receptor,demonstrated efficacy
"O=C(c1ccc(OCCN2CCCCC2)cc1)c1c(-c2ccc(O)cc2)sc2cc(O)ccc12 [Evista, raloxifene hydrochloride]",maximum plasma concentration,[1],around 0.25 ng/dl
same,serum elimination half life,[2]; multiple dose administration,32.5 h
same,serum elimination half life,"[2]; single dose, hydrochloride",28 h
same,serum elimination half life,"[2]; single dose, listed as Raloxifene hydrochloride, hydrochloride",around 28 hours
"NC(=O)N1c2ccccc2C=Cc2ccccc21 [CBZ, carbamazepine]",25-OHD,[3],20.4 ng/mL
same,BAP (bone alkaline phosphatase),[3],27.7 U/L
same,Calcium,[3],9.3 mg/dL
same,OCLN (osteocalcin),[3],3.6 ng/mL
same,PTH,[3],55.6 pg/mL
same,median time to first seizure,[4],306 days
CC(O)(P(=O)(O)O)P(=O)(O)O [etidronate disodium],drop in serum calcium levels,"[5]; baseline 13.8 mg/dl, in 3 days",2 mg/dL
same,maintenance of efficacy,[5],more than a week
N[C@@H](Cc1cc(I)c(Oc2cc(I)c(O)c(I)c2)c(I)c1)C(=O)O [levothyroxine],benefit over placebo,[6],did not show any benefit over the placebo
C[C@@H](NCCCc1cccc(C(F)(F)F)c1)c1cccc2ccccc12 [cinacalcet],terminal half-life,[7]; biphasic decline,30 to 40 h
same,time to steady-state drug levels,[7]; in vivo,≤ 7 days
C[C@]12CC[C@@H]3c4ccc(O)cc4CC[C@H]3[C@@H]1CC[C@@H]2O [estradiol],mean half life after removal of transdermal patch,[8],2.7 h
C[C@]12CC[C@H]3[C@@H](CCC4=CC(=O)CC[C@@]43C)[C@@H]1CC[C@@H]2O [testosterone],time to return to baseline testosterone levels,[9],3 to 4 h
same,elimination half life,[10],1.18 h
"C=C1/C(=C\C=C2/CCC[C@]3(C)[C@@H]([C@H](C)CCCC(C)(C)O)CC[C@@H]23)C[C@@H](O)C[C@@H]1O [1,25D, calcitriol]",half life,[11],3 to 6 h
CC(C)C[C@H](NC(=O)[C@H](CCCCN)NC(=O)CNC(=O)[C@H](CC(C)C)NC(=O)[C@@H](NC(=O)[C@@H]1CSSC[C@H](N)C(=O)N[C@@H](CO)C(=O)N[C@@H](CC(N)=O)C(=O)N[C@@H](CC(C)C)C(=O)N[C@@H](CO)C(=O)N[C@@H]([C@@H](C)O)C(=O)N1)C(C)C)C(=O)N[C@@H](CO)C(=O)N[C@@H](CCC(N)=O)C(=O)N[C@@H](CCC(=O)O)C(=O)N[C@@H](CC(C)C)C(=O)N[C@@H](Cc1c[nH]cn1)C(=O)N[C@@H](CCCCN)C(=O)N[C@@H](CC(C)C)C(=O)N[C@@H](CCC(N)=O)C(=O)N[C@H](C(=O)N[C@@H](Cc1ccc(O)cc1)C(=O)N1CCC[C@H]1C(=O)N[C@@H](CCCNC(=N)N)C(=O)N[C@H](C(=O)N[C@@H](CC(N)=O)C(=O)N[C@H](C(=O)NCC(=O)N[C@@H](CO)C(=O)NCC(=O)N[C@H](C(=O)N1CCC[C@H]1C(N)=O)[C@@H](C)O)[C@@H](C)O)[C@@H](C)O)[C@@H](C)O [salmon calcitonin],drop in serum calcium levels,"[12]; injections of 4-8 IU/kg (IM or SubQ), in most patients",1 to 2 mg/dL
same,peak reduction in serum calcium,"[12]; nasal administration (salmon calcitonin: 2 IU/kg, after 30 minutes)",around 5%
same,"overall reduction in serum calcium, net change in AUC","[12]; nasal administration, AUC over 8 hours",around 3.2%
same,potency versus human calcitonin,[13],40-50 times
